Laboratory results reported in PMC3485633 (BMC Pharmacology, 2012).

Columns and labels:
[1] = target: T1, H1 receptor (Rattus norvegicus, UniProt P31390); assay: [3H]-Pyrilamine radioligand binding assay, rat hypothalamus membrane homogenate; set-up: species or system Sprague Dawley rats; conditions: read-out: Ki ± SD H1
T1 construct: The prefrontal cortex, striatum and hypothalamus were homogenized in about 6 volumes of ice-cold buffer; from tissue; host or cells: rat hypothalamus membrane homogenate

[2] = target: T2, 5HT2A receptor (Rattus norvegicus, UniProt P14842); assay: [3H]-Ketanserine radioligand binding assay, rat prefrontal cortex membrane homogenate; set-up: species or system Sprague Dawley rats; conditions: for Ki: read-out: Ki ± SD 5HT2A; for pKi ratio 5HT2A/D2: ratio of pKi at 5HT2A to pKi at D2, rat tissue homogenate
T2 construct: The prefrontal cortex, striatum and hypothalamus were homogenized in about 6 volumes of ice-cold buffer; from tissue; host or cells: rat prefrontal cortex membrane homogenate

[3] = target: T3, D2 receptor (Rattus norvegicus, UniProt P61169); assay: [3H]-Spiperone radioligand binding assay, rat striatum membrane homogenate; set-up: species or system Sprague Dawley rats; conditions: read-out: Ki ± SD D2
T3 construct: The prefrontal cortex, striatum and hypothalamus were homogenized in about 6 volumes of ice-cold buffer; from tissue; host or cells: rat striatum membrane homogenate

[4] = set-up: method as in PMID 11488257, PMID 22103329; conditions: patients treated with these medications; cited from earlier work
[5] = target: D2 receptor; conditions: read-out: Ki D2 receptor; cited from earlier work

T1 sequence (P31390 whole entry): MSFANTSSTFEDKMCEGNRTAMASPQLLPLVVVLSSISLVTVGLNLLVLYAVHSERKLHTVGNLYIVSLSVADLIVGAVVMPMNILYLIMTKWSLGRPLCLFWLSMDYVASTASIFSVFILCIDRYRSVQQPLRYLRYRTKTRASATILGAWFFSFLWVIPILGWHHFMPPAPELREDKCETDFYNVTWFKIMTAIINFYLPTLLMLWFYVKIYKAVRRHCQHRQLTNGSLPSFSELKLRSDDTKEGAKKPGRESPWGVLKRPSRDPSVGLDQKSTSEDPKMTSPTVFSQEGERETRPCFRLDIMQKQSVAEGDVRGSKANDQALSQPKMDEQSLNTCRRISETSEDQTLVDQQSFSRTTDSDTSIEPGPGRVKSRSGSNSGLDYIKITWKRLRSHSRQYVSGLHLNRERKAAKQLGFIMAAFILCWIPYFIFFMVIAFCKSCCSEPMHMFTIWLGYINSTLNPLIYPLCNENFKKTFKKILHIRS
T2 sequence (P14842 whole entry): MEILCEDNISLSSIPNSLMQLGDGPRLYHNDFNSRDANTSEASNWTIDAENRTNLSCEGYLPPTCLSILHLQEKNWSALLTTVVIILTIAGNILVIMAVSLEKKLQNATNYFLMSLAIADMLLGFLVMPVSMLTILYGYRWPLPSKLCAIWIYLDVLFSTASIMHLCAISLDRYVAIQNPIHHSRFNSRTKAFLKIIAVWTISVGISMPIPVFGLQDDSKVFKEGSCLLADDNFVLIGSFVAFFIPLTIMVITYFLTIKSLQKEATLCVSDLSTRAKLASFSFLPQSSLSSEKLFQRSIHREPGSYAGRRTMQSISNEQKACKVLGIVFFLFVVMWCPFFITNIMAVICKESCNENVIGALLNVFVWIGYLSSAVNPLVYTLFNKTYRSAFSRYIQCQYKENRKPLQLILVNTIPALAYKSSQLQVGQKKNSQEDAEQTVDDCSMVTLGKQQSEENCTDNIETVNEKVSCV
T3 sequence (P61169 whole entry): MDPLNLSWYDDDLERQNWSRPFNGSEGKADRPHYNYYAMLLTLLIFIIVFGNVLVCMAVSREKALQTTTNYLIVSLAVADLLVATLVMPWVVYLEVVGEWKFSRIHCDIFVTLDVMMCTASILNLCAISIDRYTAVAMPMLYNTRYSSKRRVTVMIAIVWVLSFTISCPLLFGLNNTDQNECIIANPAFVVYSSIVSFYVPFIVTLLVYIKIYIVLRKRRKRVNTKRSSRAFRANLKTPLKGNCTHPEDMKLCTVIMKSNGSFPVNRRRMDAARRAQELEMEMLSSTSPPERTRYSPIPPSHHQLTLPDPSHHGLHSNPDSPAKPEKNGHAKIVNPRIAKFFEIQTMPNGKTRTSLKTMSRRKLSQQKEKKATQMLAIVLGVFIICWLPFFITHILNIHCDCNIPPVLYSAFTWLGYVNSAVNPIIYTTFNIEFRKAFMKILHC

Cc1cc2c(s1)Nc1ccccc1N=C2N1CCCN(C)CC1 [Compound 8a, 2-methyl-4-(4′-methyl-1′,4′-diazepan-1′-yl)-10H-benzo[b]thieno[2,3-e] [1,4]diazepine]
Ki [1]: 0.0335 ± 0.00739 µM | Ki [2]: 0.787 ± 0.0298 µM | Ki [3]: 3.94 ± 0.437 µM

CCc1cc2c(s1)Nc1ccccc1N=C2N1CCCN(C)CC1 [Compound 8b, 2-ethyl-4-(4′-methyl-1′,4′-diazepan-1′-yl)-10H-benzo[b]thieno[2,3-e] [1,4]diazepine]
Ki [1]: 0.0136 ± 0.00268 µM | pKi ratio 5HT2A/D2 [2]: 1.16 | Ki [2]: 0.0812 ± 0.00243 µM | Ki [3]: 0.791 ± 0.0832 µM

CCc1cc2c(s1)Nc1ccccc1N=C2N1CCN(C)CC1 [Compound 8c, 2-ethyl-4-(4′-methylpiperazin-1′-yl)-10Hbenzo[b]thieno[2,3-e][1,4]diazepine]
Ki [1]: 0.00195 ± 0.00033 µM | pKi ratio 5HT2A/D2 [2]: 1.16 | Ki [2]: 0.0037 ± 0.00074 µM | Ki [3]: 0.0545 ± 0.0121 µM

Clc1ccc2c(c1)C(N1CCNCC1)=Nc1ccccc1O2 [amoxapine]
weight change in treated patients [4]: neither weight gain nor weight loss

CN1CCN(C2=Nc3ccccc3Oc3ccc(Cl)cc32)CC1 [loxapine]
weight change in treated patients [4]: neither weight gain nor weight loss

CCN1CCC[C@H]1CNC(=O)c1c(OC)ccc(Br)c1OC [remoxipride]
Ki [5]: 0.8 µM
